How the values were obtained:
MDA‐MB‐468 cells [1] = assay: Western blotting analysis; format: cell-based; conditions: 48 h
Procedure: Cells were washed with cold PBS and lysed in RIPA buffer containing protease inhibitors (MCE, HY‐K0010). The lysate was centrifuged (13 000 rpm, 4 °C, 15 min); the protein concentrations were determined by the BCA Assay Kit (Beyotime, p0012s). Proteins were loaded onto 10% SDS‐PAGE gel and then transferred onto polyvinylidene fluoride (Millipore) membranes. The membranes were blocked for 1 h, incubated with primary antibodies overnight at 4 °C, and then washed three times with Tris‐buffered saline with Tween 20 (TBST) for 10 min. After incubating with the secondary HRP antibody for 1 h at room temperature, the membranes were washed three times with TBST for 10 min and then exposed on autoradiograph films using enhanced chemiluminescence. The primary antibodies used were ATR (1/1000 dilution, CST#13 934), PARP1 (1/1000 dilution, CST#9532), BCL‐2 (1/1000 dilution, CST#4223), Bax (1/1000 dilution, CST#5023), Caspase 3 (1/1000 dilution, CT#9662), Cleaved caspase 3 (1/1000 dilution, CST#9661), E‐cadherin (1/1000 dilution, CST#3195), Vimetin (1/1000 dilution, CST#5741), p‐CHK1 (1/1000 dilution, CST#2348), CHK1 (1/1000 dilution, CST#2360), CDK1 (Proteintech#19532‐1‐AP), p‐CDK1 (CST#9114), γH2AX (1/1000 dilution, CST#9718), and β‐Actin (1/1000 dilution, Proteintech# 66009‐1‐Ig).

MDA‐MB‐231 cells [2] = assay: Transwell invasion assay (Matrigel); format: cell-based; conditions: 24 h, vs AZD6738 and Olaparib alone or their combination
Procedure: (§1) For the wound‐healing assay, MDA‐MB‐231 cells were seeded into 6‐well plates and grown to 80% confluence. A scratch was made in the cell monolayer using a 20 µL pipette tip, and the cells were washed with PBS to remove floating cells and debris. The cells were then incubated in serum‐free medium. Cells are divided into control and drug treatment Cells in the scratched area were imaged at 0 and 48 h using microscopy, and the distance traveled by cells at the leading edge of the wound at each time point was measured. To assess cell migration, a transwell assay was performed. […] Following 24 h of incubation, the filters were fixed in 4% paraformaldehyde, stained with 0.1% crystal violet, and then imaged and counted under a microscope to determine the number of invading cells. To assess cell invasion, the transwell plate was coated with a layer of Matrigel, and the rest procedure is similar to what has been described above.

MDA‐MB‐468 cells [3] = assay: Transwell invasion assay (Matrigel); format: cell-based; conditions: 24 h, vs AZD6738 and Olaparib alone or their combination
Procedure: as §1

MDA‐MB‐231 cells [4] = assay: Immunofluorescence of γH2AX foci; format: cell-based; conditions: 48 h, vs Olaparib, AZD6738, and their combination
Procedure: (§2) Cells were fixed for 30 min in 4% paraformaldehyde and permeabilized for 30 min in 1% Triton X‐100 at 4 °C. After three rinses with PBS, cells were blocked for 30 min with 5% BSA and incubated with γH2AX antibody (1/1000 dilution, CST#9718) in 5% BSA overnight at 4 °C, after which they were rinsed three times with PBS and incubated with the secondary antibodies at room temperature for 1 h. Then, cells were washed with PBS three times, and the nucleus was stained with DAPI and fixed. Finally, images were visualized with the microscope and analyzed.

MDA‐MB‐468 cells [5] = assay: Immunofluorescence of γH2AX foci; format: cell-based; conditions: 48 h, vs Olaparib, AZD6738, and their combination
Procedure: as §2

MCF‐10A = assay: Cell growth inhibition, normal breast cell line; format: cell-based
Procedure: (§3) Growth viability was determined by the CellTiter‐Glo luminescent viability assay (Promega) 5 days after drug treatment. Cell viability was measured immediately after dosing (Day 0) and after 5 days of incubation using CellTiter‐Glo (CTG, Promega, G7573). Relative viability was calculated by normalizing the raw luminescence counts of the treated groups to those of the DMSO control groups. IC₅₀ values were calculated using sigmoidal dose‐response curve fitting with GraphPad Prism 9.0 software.

PARP2 = PARP2 (Homo sapiens, UniProt Q9UGN5); assay: PARP family selectivity; format: biochemical
Sequence of PARP2 (Q9UGN5 whole entry, species assumed): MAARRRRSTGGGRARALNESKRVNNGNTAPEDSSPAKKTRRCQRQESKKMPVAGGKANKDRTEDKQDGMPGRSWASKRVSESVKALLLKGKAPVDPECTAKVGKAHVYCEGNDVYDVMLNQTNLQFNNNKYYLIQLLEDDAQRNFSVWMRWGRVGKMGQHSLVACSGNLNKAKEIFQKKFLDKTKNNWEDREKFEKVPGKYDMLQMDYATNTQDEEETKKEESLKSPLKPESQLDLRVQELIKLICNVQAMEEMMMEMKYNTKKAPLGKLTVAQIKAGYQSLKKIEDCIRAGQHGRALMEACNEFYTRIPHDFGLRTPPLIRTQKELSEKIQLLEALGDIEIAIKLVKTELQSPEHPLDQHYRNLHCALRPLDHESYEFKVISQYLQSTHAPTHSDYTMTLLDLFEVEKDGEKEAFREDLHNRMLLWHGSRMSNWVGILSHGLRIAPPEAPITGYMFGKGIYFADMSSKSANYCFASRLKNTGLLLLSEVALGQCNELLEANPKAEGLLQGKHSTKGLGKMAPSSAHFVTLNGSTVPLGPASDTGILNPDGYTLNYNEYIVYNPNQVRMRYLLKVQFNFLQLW
Procedure: (§4) The PARP activity assay was performed by ChemPartner (Shanghai, China). Each well was precoated with histone (final conc.: 100 ng mL^−1) diluted in PBS buffer (contains 10 mmol L^−1 NaH2PO4 and 150 mmol L^−1 NaCl, pH 7.4) by incubation at 4 °C overnight. […] The reaction was initiated by the addition of 10 µL of PARP (final conc.: 0.007 nM/well) at room temperature for 60 min. Add 20 µL of anti‐Poly/Mono‐ADP Ribose Rabbit mAb. Incubate for 1.5 h at room temperature and wash the plate three times using PBST buffer. […] Incubate for 1 h at room temperature and wash the plate three times using PBST buffer. Add 25 µL Femto‐ECL Substrate A and Femto‐ECL Substrate B (1:1) mix. Immediately read chemiluminescence on Envision (Revvity, USA).

PARP7 = PARP7 (Homo sapiens, UniProt Q7Z3E1); assay: PARP family selectivity; format: biochemical
Sequence of PARP7 (Q7Z3E1 whole entry, species assumed): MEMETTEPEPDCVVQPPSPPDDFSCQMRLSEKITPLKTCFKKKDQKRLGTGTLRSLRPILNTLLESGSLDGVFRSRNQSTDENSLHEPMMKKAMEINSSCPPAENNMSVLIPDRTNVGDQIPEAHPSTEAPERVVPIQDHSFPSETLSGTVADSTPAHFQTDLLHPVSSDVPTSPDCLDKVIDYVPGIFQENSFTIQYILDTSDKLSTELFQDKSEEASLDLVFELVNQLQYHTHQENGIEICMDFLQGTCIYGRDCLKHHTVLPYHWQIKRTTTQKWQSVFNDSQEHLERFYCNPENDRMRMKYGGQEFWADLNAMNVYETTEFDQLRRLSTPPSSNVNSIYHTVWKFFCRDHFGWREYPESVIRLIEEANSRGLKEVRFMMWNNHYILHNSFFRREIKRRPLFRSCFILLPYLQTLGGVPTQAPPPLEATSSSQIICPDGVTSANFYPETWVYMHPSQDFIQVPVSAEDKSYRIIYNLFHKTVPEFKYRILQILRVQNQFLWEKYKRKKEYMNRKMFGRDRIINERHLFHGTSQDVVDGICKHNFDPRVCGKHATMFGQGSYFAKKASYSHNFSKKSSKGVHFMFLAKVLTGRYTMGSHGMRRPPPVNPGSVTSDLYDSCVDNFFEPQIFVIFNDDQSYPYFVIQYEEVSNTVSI
Procedure: as §4

[6] = test system: TNBC cells (MDA‐MB‐231, MDA‐MB‐468, MDA‐MB‐436); assay: Anti‐proliferative activity across three TNBC cell lines (summary); format: cell-based; conditions: read-out: IC50 range across three TNBC cell lines
Procedure: as §3, with “Cells were grown at 37 °C, under 95% air and 5% CO₂ until they reached about 70% confluence and were subcultured at least twice before the experiment. Cells were seeded at a density of 1000 cells/well in two 384‐well white plates, and the plates were placed in a 5% CO₂ incubator overnight. Growth” for “Growth”

MDA‐MB‐231 cells [7] = assay: Colony formation assay; format: cell-based; conditions: 1.0 µM, 10 days, vs AZD6738, Olaparib alone or combination
Procedure: (§5) The colony formation assay was performed with cells seeded in 6‐well plates (10 000 cells/well). After 10 days, cells were fixed with methanol and stained with crystal violet. The number of colonies was counted. Data represent the means ± SD from 3 independent experiments performed in triplicate wells.

MDA‐MB‐468 cells [8] = assay: Colony formation assay; format: cell-based; conditions: 1.0 µM, 10 days, vs AZD6738, Olaparib alone or combination
Procedure: as §5

[9] = compared to the combination group

`C[C@@H]1COCCN1c1cc(CNC(=O)c2ccc(C(=O)N3CCN(C(=O)c4cc(Cc5n[nH]c(=O)c6ccccc56)ccc4F)CC3)cc2)nc(-c2ccnc3[nH]ccc23)n1` [Compound B8, (R)‐4‐(4‐(2‐fluoro‐5‐((4‐oxo‐3,4‐dihydrophthalazin‐1‐yl)methyl)benzoyl)piperazine‐1‐carbonyl)‐N‐((6‐(3‐methylmorpholino)‐2‐(1H‐pyrrolo[2,3‐b]pyridin‐4‐yl)pyrimidin‐4‐yl)methyl) benzamide] was tested, and the “BCL‐2 protein expression (Western blot)” value (MDA‐MB‐468 cells [1]) was “significantly decreased the protein expression of BCL‐2”, the “CDK1 Tyr15 phosphorylation (Western blot)” value (MDA‐MB‐468 cells [1]) was “enhanced CDK1 Tyr15 phosphorylation” and the “CHK1 Ser345 phosphorylation (Western blot)” value (MDA‐MB‐468 cells [1]) was “significantly decreased CHK1 Ser345 phosphorylation”. The “E‐cadherin expression (Western blot)” value (MDA‐MB‐468 cells [1]; [9]) was “significant increase in the expression of the epithelial cell marker E‐cadherin”, the “Vimentin expression (Western blot)” value (MDA‐MB‐468 cells [1]; [9]) was “decrease in the expression of the mesenchymal cell marker Vimentin” and the “BAX and cleaved‐caspase‐3 protein expression (Western blot)” value (MDA‐MB‐468 cells [1]; compared to the combination of AZD6738 and Olaparib) was “induced more BAX and cleaved‐caspase‐3 protein expression”. The “DSB marker γH2AX (Western blot)” value (MDA‐MB‐468 cells [1]; B8 1.0 and 2.0 µM) was “significantly increased than under the combination treatment”, the “protein levels of ATR and PARP1 (Western blot)” value (MDA‐MB‐468 cells [1]; B8 1.0 and 2.0 µM, vs Olaparib or AZD6738 alone or in combination) was “reduction in the protein levels of both ATR and PARP1” and the “invasive capacity” value (MDA‐MB‐231 cells [2]) was “superior inhibitory effects on the invasive capacity”. For the same compound, the “invasive capacity” value (MDA‐MB‐468 cells [3]) was “superior inhibitory effects on the invasive capacity”, the “γH2AX foci formation” value (MDA‐MB‐231 cells [4]) was “significantly increased the formation of γH2AX foci” and the “γH2AX foci formation” value (MDA‐MB‐468 cells [5]) was “significantly increased the formation of γH2AX foci”. The inhibition at 30 µM (MCF‐10A; Homo sapiens, MCF-10A, @30 µM, read-out: MCF‐10A inhibitory rate at certain concentration) was 17%, the “inhibitory activity against normal cells” value (MCF‐10A; MCF‐10A) was “minimal inhibitory activity against normal cells” and the IC50 (PARP2) was 5.1 nM. For the same compound, the “PARP2 (selectivity over PARP1, fold)” value (PARP2; fold of PARP1 selectivity over PARP2) was 13.4 fold, the IC50 (PARP7) was 28.5 ± 1.3 nM and the “PARP7 (selectivity over PARP1, fold)” value (PARP7; fold of PARP1 selectivity over PARP7) was 75 fold. For the same compound, the IC50 [6] was 9 to 1890 nM, the “colony formation rate” value (MDA‐MB‐231 cells [7]) was “significantly greater inhibitory effect on the colony formation rate” and the “colony formation rate” value (MDA‐MB‐468 cells [8]) was “significantly greater inhibitory effect on the colony formation rate”.

— PMC12362783 (Advanced Science, 2025)
